Tested on: T cells
Assay: not given
Conditions: oral administration of KD025, healthy human subjects, ex-vivo stimulation of T-cells; cited from earlier work

For `CC(C)NC(=O)COc1cccc(-c2nc(Nc3ccc4[nH]ncc4c3)c3ccccc3n2)c1` [KD025], the “reduction of the ability of T cells to secrete IL-17” value is given as 60%.

For `CC(C)NC(=O)COc1cccc(-c2nc(Nc3ccc4[nH]ncc4c3)c3ccccc3n2)c1` [KD025], the “reduction of the ability of T cells to secrete IL-21” value is given as 90%.

Biological target: T1, N-terminal 6His-tagged ROCK2 catalytic domain 11-552 (Homo sapiens, UniProt O75116)
T1 construct: N-terminal 6His-tagged ROCK2 catalytic domain 11-552; 6His (N); purchased Dundee University, UK; host or cells: baculovirus expression system
T1 sequence (O75116 11-552): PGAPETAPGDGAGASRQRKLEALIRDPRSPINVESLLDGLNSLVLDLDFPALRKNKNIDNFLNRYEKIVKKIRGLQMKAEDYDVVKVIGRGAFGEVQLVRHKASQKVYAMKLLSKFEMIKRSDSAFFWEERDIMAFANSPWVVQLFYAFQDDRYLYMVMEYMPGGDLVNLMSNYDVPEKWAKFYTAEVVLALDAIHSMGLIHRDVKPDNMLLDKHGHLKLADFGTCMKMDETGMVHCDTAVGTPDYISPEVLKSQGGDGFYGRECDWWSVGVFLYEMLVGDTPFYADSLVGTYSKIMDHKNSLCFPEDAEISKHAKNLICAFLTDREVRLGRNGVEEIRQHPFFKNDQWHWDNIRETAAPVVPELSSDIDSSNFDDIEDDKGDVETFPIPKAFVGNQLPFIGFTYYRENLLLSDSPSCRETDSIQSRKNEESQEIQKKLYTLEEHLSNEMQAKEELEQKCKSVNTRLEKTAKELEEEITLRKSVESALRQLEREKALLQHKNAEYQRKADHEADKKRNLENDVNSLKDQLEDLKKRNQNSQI
Assay: ROCK2 binding activity: ROCK2 inhibition, ADP-Glo Kinase Assay
Assay type: biochemical
Conditions: 1.25 nM ROCK2, 100 μM long S6 peptide, 20 μM ATP; 1 hour pre-incubation; read-out: ADP-Glo kinase activity assay ROCK2 Category
In short: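 1.25 nM baculovirus-expressed ROCK2 pre-incubated 1 h with compound (1% DMSO), then 100 μM long S6 peptide and 20 μM ATP added for 1 h; 50 mM HEPES pH 7.5, 10 mM Mg acetate, 1 mM DTT. ADP-Glo luminescence; IC50 from four-parameter logistic fit.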

First: Cc1c(Nc2nc(-c3ccc(C(=O)NCC(F)(F)F)nc3)nn2C)ccc2[nH]ncc12 [Example 418]
Second: Cc1c(Nc2nc(-c3ccc(C(=O)NCC(F)(F)F)cc3)nn2C)ccc2[nH]ncc12 [Example 421]
The IC50 of the first is higher: 300 to 3000 nM for the first, < 300 nM for the second.

`Cc1c(Nc2nc(-c3ccc(C(=O)NCC(F)(F)F)c(F)c3F)nn2C)ccc2[nH]ncc12` [Example 419] and `CCc1c(Nc2nc(-c3ccc(C(=O)NCC(F)(F)F)c(C)c3)nn2C)ccc2[nH]ncc12` [Example 424] cannot be ordered by IC50: < 300 nM for the first, < 300 nM for the second.

First: COc1cc(-c2nc(Nc3ccc4[nH]ncc4c3C)n(C)n2)cnc1C(=O)NC1CC1 [Example 420]
Second: COc1cc(-c2nc(Nc3ccc4[nH]ncc4c3C)n(C3CC3)n2)ccc1C(=O)NCC(F)(F)F [Example 456]
The IC50 of the first is higher: 300 to 3000 nM for the first, < 300 nM for the second. The second is the more potent here.

Compared with `Cc1c(Nc2nc(-c3ccc(C(N)C(F)(F)F)cc3)nn2C)ccc2[nH]ncc12` (stereo not shown) [Example 422], `CC(C)c1c(Nc2nc(-c3ccc(C(=O)NCC(F)(F)F)cc3)nn2C)ccc2[nH]ncc12` [Example 425] is lower in IC50: > 10000 nM for the first, 300 to 3000 nM for the second. The second is the more potent here.

`CCc1c(Nc2nc(-c3ccc(C(=O)NCC(F)(F)F)cc3)nn2C)ccc2[nH]ncc12` [Example 423] and `C=C(C)c1c(Nc2nc(-c3ccc(C(=O)NCC(F)(F)F)cc3)nn2C)ccc2[nH]ncc12` [Example 458, 4-[5-[(4-isopropenyl-1H-indazol-5-yl)amino]-1-methyl-1,2,4-triazol-3-yl]-N-(2,2,2-trifluoroethyl)benzamide] cannot be ordered by IC50: < 300 nM for the first, < 300 nM for the second.

`C=Cc1c(Nc2nc(-c3ccc(C(=O)NCC)cc3)nn2C)ccc2[nH]ncc12` [Example 426] and `C=C(C)c1c(Nc2nc(-c3ccc(C(=O)NCC)cc3)nn2C)ccc2[nH]ncc12` [Example 459, N-ethyl-4-[5-[(4-isopropenyl-1H-indazol-5-yl)amino]-1-methyl-1,2,4-triazol-3-yl]benzamide] cannot be ordered by IC50: < 300 nM for the first, < 300 nM for the second.

`Cc1n[nH]c2ccc(Nc3nc(-c4ccc(C(=O)NCC(F)(F)F)cc4)nn3C)cc12` [Example 427] and `Cn1nc(-c2ccc(C(=O)NCC(F)(F)F)cc2)nc1Nc1ccc2[nH]nc(F)c2c1` [Example 428] cannot be ordered by IC50: < 300 nM for the first, < 300 nM for the second.

`COc1cc(-c2nc(Nc3ccc4[nH]nc(Cl)c4c3)n(C)n2)ccc1C(=O)NCC(F)(F)F` [Example 429] and `Cn1nc(-c2ccc(C(=O)NCC(F)(F)F)cc2)nc1Nc1ccc2[nH]nc(Cl)c2c1` [Example 430] cannot be ordered by IC50: < 300 nM for the first, < 300 nM for the second.

First: COc1cc(-c2nc(Nc3cc4cn[nH]c4cc3F)n(C)n2)ccc1C(=O)NC(C)(C)C [Example 432]
Second: COc1cc(-c2nc(Nc3ccc4[nH]ncc4c3C)n(C(C)C)n2)ccc1C(=O)NCC(F)(F)F [Example 449]
The IC50 of the first is higher: 3000 to 10000 nM for the first, < 300 nM for the second.

First: COc1cc(-c2nc(Nc3cnc4[nH]ncc4c3)n(C)n2)ccc1OCC(=O)NC(C)C [Example 433]
Second: COCCn1nc(-c2ccc(OCC(=O)NC(C)C)c(OC)c2)nc1Nc1ccc2[nH]ncc2c1 [Example 447]
The IC50 of the first is higher: 300 to 3000 nM for the first, < 300 nM for the second. The second is the more potent here.

`COc1cc(-c2nc(Nc3ccc4[nH]ncc4c3Cl)n(CCN3CCOCC3)n2)ccc1OCC(=O)NC(C)C` [Example 434] and `COc1cc(-c2nc(Nc3ccc4[nH]ncc4c3)n(CCN3CCOCC3)n2)ccc1OCC(=O)NC(C)C` [Example 446] cannot be ordered by IC50: < 300 nM for the first, < 300 nM for the second.

`Cc1cc(-c2nc(Nc3ccc4[nH]ncc4c3Cl)n(CC(C)C)n2)ccc1C(=O)NCC(F)(F)F` [Example 435] and `Cc1cc(-c2nc(Nc3ccc4[nH]ncc4c3C)n(CC(C)C)n2)ccc1C(=O)NCC(F)(F)F` [Example 451] cannot be ordered by IC50: < 300 nM for the first, < 300 nM for the second.

`COc1cc(-c2nc(Nc3ccc4[nH]ncc4c3Cl)n(CC(C)C)n2)ccc1OCC(=O)NC(C)C` [Example 436] and `COc1cc(-c2nc(Nc3ccc4[nH]ncc4c3C)n(CC(C)C)n2)ccc1OCC(=O)NC(C)C` [Example 452] cannot be ordered by IC50: < 300 nM for the first, < 300 nM for the second.

`COc1cc(-c2nc(Nc3ccc4[nH]ncc4c3Cl)n(CC(C)C)n2)ccc1C(=O)NCC(F)(F)F` [Example 437] and `COc1cc(-c2nc(Nc3ccc4[nH]ncc4c3C)n(CC(C)C)n2)ccc1C(=O)NCC(F)(F)F` [Example 455] cannot be ordered by IC50: < 300 nM for the first, < 300 nM for the second.

`COCCn1nc(-c2ccc(C(=O)NCC(F)(F)F)cc2)nc1Nc1ccc2[nH]ncc2c1C1CC1` [Example 438] and `CNCCn1nc(-c2ccc(C(=O)NCC(F)(F)F)cc2)nc1Nc1ccc2[nH]ncc2c1C1CC1` [Example 443] cannot be ordered by IC50: < 300 nM for the first, < 300 nM for the second.

`COCCn1nc(-c2ccc(C(=O)NCC(F)(F)F)c(OC)c2)nc1Nc1ccc2[nH]ncc2c1C1CC1` [Example 439] and `CCn1nc(-c2ccc(C(=O)NCC(F)(F)F)c(OC)c2)nc1Nc1ccc2[nH]ncc2c1C1CC1` [Example 441] cannot be ordered by IC50: < 300 nM for the first, < 300 nM for the second.

`COCCn1nc(-c2ccc(C(=O)NC3CC3)cc2)nc1Nc1ccc2[nH]ncc2c1C1CC1` [Example 440] and `CC(O)Cn1nc(-c2ccc(C(=O)NCC(F)(F)F)cc2)nc1Nc1ccc2[nH]ncc2c1C1CC1` (stereo not shown) [Example 444] cannot be ordered by IC50: < 300 nM for the first, < 300 nM for the second.

`O=C(NCC(F)(F)F)c1ccc(-c2nc(Nc3ccc4[nH]ncc4c3C3CC3)n(C3CCNCC3)n2)cc1` [Example 442] and `COCCn1nc(-c2ccc(C(=O)NCC(F)(F)F)cc2)nc1Nc1ccc2[nH]ncc2c1C` [Example 453] cannot be ordered by IC50: < 300 nM for the first, < 300 nM for the second.

`COc1cc(-c2nc(Nc3ccc4[nH]ncc4c3)n(CCN3CCCCC3)n2)ccc1OCC(=O)NC(C)C` [Example 445] and `CC(C)NC(=O)COc1ccc(-c2nc(Nc3ccc4[nH]ncc4c3)n(C)n2)cc1F` [Example 473] cannot be ordered by IC50: < 300 nM for the first, < 300 nM for the second.

`COCCn1nc(-c2ccc(C(=O)NCC(F)(F)F)c(OC)c2)nc1Nc1ccc2[nH]ncc2c1C` [Example 448] and `COCCn1nc(-c2ccc(C(=O)NCC(F)(F)F)c(C)c2)nc1Nc1ccc2[nH]ncc2c1C` [Example 454] cannot be ordered by IC50: < 300 nM for the first, < 300 nM for the second.

`COc1cc(-c2nc(Nc3ccc4[nH]ncc4c3C)n(C(C)C)n2)ccc1OCC(=O)NC(C)C` [Example 450] and `CC(C)NC(=O)COc1ccc(-c2nc(Nc3ccc4[nH]ncc4c3Cl)n(C)n2)cc1Cl` [Example 472] cannot be ordered by IC50: < 300 nM for the first, < 300 nM for the second.

`CCn1nc(-c2ccc(C(=O)NCC(F)(F)F)c(OC)c2)nc1Nc1ccc2[nH]ncc2c1C` [Example 457] and `CC(C)NC(=O)COc1ccc(-c2nc(Nc3ccc4[nH]ncc4c3Cl)n(C)n2)cc1F` [Example 474] cannot be ordered by IC50: < 300 nM for the first, < 300 nM for the second.

`CC(C)NC(=O)COc1ccc(-c2nc(Nc3ccc4[nH]ncc4c3)n(C)n2)cc1` [Example 470] and `CC(C)NC(=O)COc1ccc(-c2nc(Nc3ccc4[nH]ncc4c3Cl)n(C)n2)cc1` [Example 471] cannot be ordered by IC50: < 300 nM for the first, < 300 nM for the second.

With `CC(C)NC(=O)COc1ccc(-c2nc(Nc3ccc4[nH]ncc4c3Cl)n(C)n2)c(C(F)(F)F)c1` [Example 475] the IC50 was < 300 nM.
